Assay [1] has as its target T1, human EP2 receptor (Homo sapiens, UniProt P43116).
T1 construct: purchased Euroscreen S.A. ES-562-M; host or cells: HEK293 cells
As to the kind of experiment: Measurement of EP2 receptor binding affinity ([3H]PGE2 displacement). The following applies: read-out: Ki value of EP2 receptor binding affinity. Here is the method:
(§1) Measurement of EP2 receptor binding affinity was carried out according to the method of Abramovitz et al. (Biochimica et Biophysica Acta, 1483, 285 (2000)). […] The membrane fraction was recovered on glass fiber filter paper (GF/B, available from Whatman PLC) using a cell harvester […], available from Brandel Inc.), and after washing with a buffer solution (10 mM MES-KOH (pH 6.0), 10 mM MgCl2), radioactivity was measured with a liquid scintillation analyzer (2000CA, available from Packard). […] The dissociation constant (Kd value) was calculated by Scatchard analysis.

Assay [2] concerns the target T1, human EP2 receptor. The experiment in a line: Measurement of EP2 agonist activity (cAMP amount in cells). Type of assay: cell-based. The following applies: HEK 293 cells expressing human EP2 receptor, cAMP increase, 30 minutes. Here is the method: Measurement of EP2 agonist activity was carried out according to the method of Wilson et al. (European Journal of Pharmacology, 501, 49 (2004)). […] On the next day, the medium was replaced with serum-free MEM medium containing 3-isobutyl-1-methylxanthine (final concentration: 500 μM) and after culturing for 30 minutes, a test compound dissolved in dimethylsulfoxide was added and the medium was allowed to stand in a carbon dioxide gas incubator. After 30 minutes, an amount of cAMP in the cells was measured with a cAMP Biotrak EIA System kit (available from GE Healthcare Bioscience).

The target of the next assay is T2, human EP1 receptor (Homo sapiens, UniProt P34995).
T2 sequence (P34995 1-402): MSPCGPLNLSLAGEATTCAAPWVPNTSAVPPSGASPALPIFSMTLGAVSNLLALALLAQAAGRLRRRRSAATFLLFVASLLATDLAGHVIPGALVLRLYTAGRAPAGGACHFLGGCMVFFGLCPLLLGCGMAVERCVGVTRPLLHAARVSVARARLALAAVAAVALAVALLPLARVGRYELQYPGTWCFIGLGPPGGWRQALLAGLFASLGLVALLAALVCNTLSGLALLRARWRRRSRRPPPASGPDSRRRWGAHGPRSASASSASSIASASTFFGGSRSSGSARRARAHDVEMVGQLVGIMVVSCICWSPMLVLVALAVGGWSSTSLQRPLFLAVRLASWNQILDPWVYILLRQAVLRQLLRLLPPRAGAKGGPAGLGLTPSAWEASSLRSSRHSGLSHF
The experiment in a line: Measurement of EP1 receptor binding affinity ([3H]PGE2 displacement). Particulars: membrane fraction of Chem-1 cells expressing human EP1 receptor, [3H]PGE2 10 nM. Here is the method:
as §1, with “EP1” for “EP2”, “PLC) pretreated with 0.3% polyethyleneimine by” for “PLC)”

Counter-ions that a name gives are not always drawn.

T1 sequence (P43116 whole entry): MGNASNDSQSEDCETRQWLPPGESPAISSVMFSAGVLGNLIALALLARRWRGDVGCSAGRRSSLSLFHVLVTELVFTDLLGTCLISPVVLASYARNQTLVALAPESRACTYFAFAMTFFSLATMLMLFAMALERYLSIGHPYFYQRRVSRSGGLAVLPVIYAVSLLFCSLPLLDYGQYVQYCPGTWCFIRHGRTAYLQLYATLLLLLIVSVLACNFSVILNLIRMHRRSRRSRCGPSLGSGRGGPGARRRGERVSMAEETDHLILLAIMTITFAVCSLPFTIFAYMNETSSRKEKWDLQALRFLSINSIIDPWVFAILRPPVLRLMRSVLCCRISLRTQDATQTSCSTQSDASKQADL

Regarding `CCCCC(C)(C)c1ccc(CN(Cc2cccc(NCC(=O)O)n2)S(=O)(=O)c2ccc(F)cc2)s1` [Example 3, (6-{(4-Fluorobenzenesulfonyl)[5-(1,1-dimethylpentyl)thiophen-2-ylmethyl]aminomethyl}pyridin-2-ylamino)acetic acid], at human EP2 receptor [1], the Ki is 1.8 nM. On human EP2 receptor [2], the concentration for a half-maximal effect (EC50) came to 6 nM.

For the compound `CCC(C)(C)c1ccc(CN(Cc2cccc(NCC(=O)O)n2)S(=O)(=O)c2ccccn2)s1` [Example 4, {6-[(5-tert-Pentylthiophen-2-ylmethyl)(pyridin-2-ylsulfonyl)aminomethyl]pyridin-2-ylamino}acetic acid], the Ki at human EP2 receptor [1] was 3.4 nM. The EC50 on human EP2 receptor [2] came to 7 nM.

The compound `CC1(c2ccc(CN(Cc3cccc(NCC(=O)O)n3)S(=O)(=O)c3cccnc3)cc2)CC1` [Example 5, (6-{[4-(1-Methylcyclopropyl)benzyl](pyridin-3-ylsulfonyl)aminomethyl}pyridin-2-ylamino)acetic acid hydrochloride] showed an EC50 on human EP2 receptor [2] of 2.6 nM. In other words, the single-digit nanomolar range.

For `CCC1(c2ccc(CN(Cc3cccc(NCC(=O)O)n3)S(=O)(=O)c3ccccn3)cc2)CC1` [Example 6, (6-{[4-(1-Ethylcyclopropyl)benzyl](pyridin-2-ylsulfonyl)aminomethyl}pyridin-2-ylamino)acetic acid], the midpoint of the response at human EP2 receptor [2], the EC50, lay at 5.4 nM.

As to `CCC1(c2ccc(CN(Cc3cccc(NCC(=O)O)n3)S(=O)(=O)c3cccnc3)cc2)CC1` [Example 7, (6-{[4-(1-Ethylcyclopropyl)benzyl](pyridin-3-ylsulfonyl)aminomethyl}pyridin-2-ylamino)acetic acid], the Ki on human EP2 receptor [1] amounted to 8.3 nM. In addition, a half-maximal response at human EP2 receptor [2] (EC50) required 4.5 nM.

With `CCCCC1(c2ccc(CN(Cc3cccc(NCC(=O)O)n3)S(=O)(=O)c3cccnc3)cc2)CC1` [Example 10, 6-{[4-(1-Butylcyclopropyl)benzyl](pyridin-3-ylsulfonyl)aminomethyl}pyridin-2-ylamino)acetic acid hydrochloride], the Ki at human EP2 receptor [1] is 11 nM. This compound also came in with an EC50 at human EP2 receptor [2] of 4.2 nM.

As for `CCC1(c2ccc(CN(Cc3cccc(NCC(=O)O)n3)S(=O)(=O)c3ccc(F)cc3)cc2)CC1` [Example 14, (6-{[4-(1-Ethylcyclopropyl)benzyl](4-fluorobenzenesulfonyl)aminomethyl}pyridin-2-ylamino)acetic acid], at human EP2 receptor [2], the EC50 was determined as 8 nM.

`CCCCC1(c2ccc(CN(Cc3cccc(NCC(=O)O)n3)S(=O)(=O)c3ccncc3)cc2)CC1` [Example 16, (6-{[4-(1-Butylcyclopropyl)benzyl](pyridin-4-ylsulfonyl)aminomethyl}pyridin-2-ylamino)acetic acid]: at human EP2 receptor [1], the inhibition constant (Ki) came to 6.1 nM. Also, the EC50 at human EP2 receptor [2] came to 6.3 nM.

Consider `CC(C)(C)c1ccc(CN(Cc2cccc(NCC(=O)O)n2)S(=O)(=O)c2ccccc2)cc1` [Example 21, {6-[(Benzenesulfonyl)(4-tert-butylbenzyl)aminomethyl]pyridin-2-ylamino}acetic acid hydrochloride], for which, on human EP2 receptor [2], a half-maximal effect (EC50) was put at 4.3 nM.

The compound `CC(C)(C)c1ccc(CN(Cc2cccc(NCC(=O)O)n2)S(=O)(=O)c2ccccn2)cc1` [Example 23, {6-[(4-tert-Butylbenzyl)(pyridin-2-ylsulfonyl)aminomethyl]pyridin-2-ylamino}acetic acid hydrochloride] returned a concentration for a half-maximal effect (EC50) at human EP2 receptor [2] of 2.7 nM.

Compound `CCCC=C(C)c1ccc(CN(Cc2cccc(NCC(=O)O)n2)S(=O)(=O)c2ccccn2)cc1` [Example 24, (6-{[4-(1-Methyl-1-pentenyl)benzyl](pyridin-2-ylsulfonyl)aminomethyl}pyridin-2-ylamino)acetic acid] had an EC50 on human EP2 receptor [2] of 4.5 nM.

In turn, `CCC(CC)c1ccc(CN(Cc2cccc(NCC(=O)O)n2)S(=O)(=O)c2cccnc2)cc1` [Example 27, (6-{[4-(1-Ethylpropyl)benzyl](pyridin-3-ylsulfonyl)aminomethyl}pyridin-2-ylamino)-acetic acid] gave an EC50 on human EP2 receptor [2] of 6.9 nM.

Regarding `CCC(C)(C)c1ccc(CN(Cc2cccc(NCC(=O)O)n2)S(=O)(=O)c2ccccn2)cc1` [Example 28, {6-[(4-tert-Pentylbenzyl)(pyridin-2-ylsulfonyl)aminomethyl]pyridin-2-ylamino}acetic acid hydrochloride], on human EP2 receptor [1], the Ki was 9.8 nM. For the same compound, the EC50 on human EP2 receptor [2] worked out at 6.4 nM.

The compound `CC(C)(C)Cc1ccc(CN(Cc2cccc(NCC(=O)O)n2)S(=O)(=O)c2ccccn2)cc1` [Example 29, {6-[(4-Neopentylbenzyl)(pyridin-2-ylsulfonyl)aminomethyl]pyridin-2-ylamino}acetic acid hydrochloride] gave an EC50 at human EP2 receptor [2] of 5 nM.

Regarding `CC(C)(C)c1ccc(CN(Cc2cccc(NCC(=O)O)n2)S(=O)(=O)c2ccc(F)cc2)cc1` [Example 30, {6-[(4-tert-Butylbenzyl)(4-fluorobenzenesulfonyl)aminomethyl]pyridin-2-ylamino}-acetic acid hydrochloride], the Ki on human EP2 receptor [1] is 8.3 nM. On human EP2 receptor [2], the EC50 turned out to be 2.7 nM.

`CC(C)(C)c1ccc(CN(Cc2cccc(NCC(=O)O)n2)S(=O)(=O)c2cccc(F)c2)cc1` [Example 31, {6-[(4-tert-Butylbenzyl)(3-fluorobenzenesulfonyl)aminomethyl]pyridin-2-ylamino}-acetic acid hydrochloride]: on human EP2 receptor [1], the Ki is 8.6 nM. This compound gave an EC50 at human EP2 receptor [2] of 6.1 nM.

In the case of `CC(C)(C)c1ccc(CN(Cc2cccc(NCC(=O)O)n2)S(=O)(=O)c2ccc(Cl)cc2)cc1` [Example 33, {6-[(4-tert-Butylbenzyl)(4-chlorobenzenesulfonyl)aminomethyl]pyridin-2-ylamino}-acetic acid hydrochloride], the inhibitory constant (Ki) at human EP2 receptor [1] stood at 4.4 nM. The compound further registered an EC50 on human EP2 receptor [2] of 4.4 nM.

Consider `CC(C)(C)c1ccc(CN(Cc2cccc(NCC(=O)O)n2)S(=O)(=O)c2cccnc2)cc1` [Example 35, {6-[(4-tert-Butylbenzyl)(pyridin-3-ylsulfonyl)aminomethyl]pyridin-2-ylamino}acetic acid hydrochloride], for which a half-maximal effect at human EP2 receptor [2] (EC50) was put at 2.8 nM.

As to `CCCCC(C)c1ccc(CN(Cc2cccc(NCC(=O)O)n2)S(=O)(=O)c2ccccn2)cc1` (stereo not drawn) [Example 40, (6-{[4-(1-Methylpentyl)benzyl](pyridin-2-ylsulfonyl)aminomethyl}pyridin-2-ylamino)-acetic acid], the Ki at human EP2 receptor [1] is 5.3 nM. At human EP2 receptor [2], this compound registered an EC50 of 2.8 nM.

As for `CCCCC(C)(C)c1ccc(CN(Cc2cccc(NCC(=O)O)n2)S(=O)(=O)c2ccncc2)cc1` [Example 43, (6-{[4-(1,1-Dimethylpentyl)benzyl](pyridin-4-ylsulfonyl)aminomethyl}pyridin-2-ylamino)acetic acid], the Ki at human EP2 receptor [1] is 3.6 nM.

With `CCCCC(C)(C)c1ccc(CN(Cc2cccc(NCC(=O)O)n2)S(=O)(=O)c2cccnc2)cc1` [Example 46, (6-{[4-(1,1-Dimethylpentyl)benzyl](pyridin-3-ylsulfonyl)aminomethyl}pyridin-2-ylamino)acetic acid], the Ki on human EP2 receptor [1] worked out at 3.3 nM.

Take `CCCCC(C)(C)c1ccc(CN(Cc2cccc(NCC(=O)O)n2)S(=O)(=O)c2cccs2)cc1` [Example 48, (6-{[4-(1,1-Dimethylpentyl)benzyl](thiophen-2-ylsulfonyl)aminomethyl}pyridin-2-ylamino)acetic acid]: the Ki at human EP2 receptor [1] was determined as 6.4 nM.

In the case of `CCCCC(C)(C)c1ccc(CN(Cc2cccc(NCC(=O)O)n2)S(=O)(=O)c2ccccn2)c(F)c1` [Example 55, (6-{[2-Fluoro-4-(1,1-dimethylpentyl)benzyl](pyridin-2-ylsulfonyl)aminomethyl}pyridin-2-ylamino)acetic acid], the Ki on human EP2 receptor [1] worked out at 2.1 nM. The compound further had an EC50 at human EP2 receptor [2] of 7 nM.

`CCCCC(C)(C)c1ccc(CN(Cc2cccc(NCC(=O)O)n2)S(=O)(=O)c2cccc(F)c2)cc1` [Example 60, (6-{(3-Fluorobenzenesulfonyl)[4-(1,1-dimethylpentyl)benzyl]aminomethyl}pyridin-2-ylamino)acetic acid]: a half-maximal response on human EP2 receptor [2] (EC50) required 5.5 nM.

Consider `CCCCC[C@H](O)/C=C/[C@H]1[C@H](O)CC(=O)[C@@H]1C/C=C\CCCC(=O)O` [PGE2, Prostaglandin E2, reference compound], for which affinity at human EP1 receptor was put at a Ki of 9 nM.

The term Ki denotes a measure of affinity in units of concentration, obtained from inhibition or displacement. As usually defined, the EC50 is the concentration at which the effect is half-maximal. Read a high EC50 as a less potent agent.

Values taken from US20120259123A1, “AMINOPYRIDINE COMPOUND” (UBE INDUSTRIES, LTD., priority 2009, published 2012).
